Experimental data from patent US6914045B2, “Glycopeptide antibiotics” (Wyeth Holdings Corporation, priority 2001, dated 2005).
≈ marks a conversion by molar mass, not a printed value.

Assays:
Assay in all cases: in vitro antibacterial evaluation, MIC by broth dilution
Type in all cases: cell-based
Escherichia coli = conditions: 18 hours at 35° C.
Streptococcus sp. = conditions: broth dilution, 18 hours at 35° C.
Method in brief: (§1)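 MIC = lowest antibiotic concentration preventing visible growth; inoculum 5×10^5 CFU/mL; drug range 64-0.06 μg/mL; Muller-Hinton II […]; NCCLS M7-A2 guidance.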

Staphylococcus sp. = conditions: broth dilution, 18 hours at 35° C.
Method in brief: as §1

Enterococcus sp. = conditions: broth dilution, 18 hours at 35° C.
Method in brief: as §1

- MIC Escherichia coli (ATCC 25922) (Escherichia coli): >64 µg/mL
- MIC Escherichia coli (GC 4559) (Escherichia coli): >64 µg/mL
- MIC Escherichia coli (GC 4560) (Escherichia coli): 16 µg/mL (≈ 10.9 µM)
- MIC Streptococcus agalactiae (GC 4564) (Streptococcus sp.): 2 µg/mL (≈ 1.36 µM)
- MIC Streptococcus pneumoniae (ATCC 6301) (Streptococcus sp.): 0.5 µg/mL (≈ 0.339 µM)
- MIC Streptococcus pneumoniae (GC 1894) (Streptococcus sp.): <0.06 µg/mL
- MIC Streptococcus pneumoniae (GC 4565) (Streptococcus sp.): 0.25 µg/mL (≈ 0.17 µM)
- MIC Streptococcus pyogenes (GC 4563) (Streptococcus sp.): 1 µg/mL (≈ 0.679 µM)
- MIC Streptococcus pneumoniae (ATCC 6301) (Streptococcus sp.; inoculum 5×10^5 CFU/mL, strain ATCC 6301): 0.5 µg/mL (≈ 0.339 µM)
- MIC Streptococcus pneumoniae (GC 1894) (Streptococcus sp.; inoculum 5×10^5 CFU/mL, strain GC 1894): <0.06 µg/mL
- MIC Streptococcus pyogenes (GC 4563) (Streptococcus sp.; inoculum 5×10^5 CFU/mL, strain GC 4563): 1 µg/mL (≈ 0.679 µM)
- MIC Streptococcus agalactiae (GC 4564) (Streptococcus sp.; inoculum 5×10^5 CFU/mL, strain GC 4564): 2 µg/mL (≈ 1.36 µM)
- MIC Streptococcus pneumoniae (GC 4565) (Streptococcus sp.; inoculum 5×10^5 CFU/mL, strain GC 4565): 0.25 µg/mL (≈ 0.17 µM)
- MIC Staphylococcus aureus (ATCC 29213) (Staphylococcus sp.; strain ATCC 29213): 4 µg/mL (≈ 2.71 µM)
- MIC Staphylococcus aureus (GC 1131) (Staphylococcus sp.; strain GC 1131): 4 µg/mL (≈ 2.71 µM)
- MIC Staphylococcus aureus (GC 3051) (Staphylococcus sp.; strain GC 3051): 8 µg/mL (≈ 5.43 µM)
- MIC Staphylococcus aureus (GC 3053) (Staphylococcus sp.; strain GC 3053): 4 µg/mL (≈ 2.71 µM)
- MIC Staphylococcus aureus (GC 4541) (Staphylococcus sp.; strain GC 4541): 4 µg/mL (≈ 2.71 µM)
- MIC Staphylococcus aureus (GC 4542) (Staphylococcus sp.; strain GC 4542): 8 µg/mL (≈ 5.43 µM)
- MIC Staphylococcus aureus-SMITH (GC 4543) (Staphylococcus sp.; strain GC 4543): 4 µg/mL (≈ 2.71 µM)
- MIC Staphylococcus aureus (GC 4544) (Staphylococcus sp.; strain GC 4544): 8 µg/mL (≈ 5.43 µM)
- MIC Staphylococcus aureus (GC 4545) (Staphylococcus sp.; strain GC 4545): 4 µg/mL (≈ 2.71 µM)
- MIC Coagulase Negative Staphylococcus (GC 4547) (Staphylococcus sp.; strain GC 4547): 4 µg/mL (≈ 2.71 µM)
- MIC Coagulase Negative Staphylococcus (GC 4548) (Staphylococcus sp.; strain GC 4548): 4 µg/mL (≈ 2.71 µM)
- MIC Coagulase Negative Staphylococcus (GC 4549) (Staphylococcus sp.; strain GC 4549): 2 µg/mL (≈ 1.36 µM)
- MIC Coagulase Negative Staphylococcus (GC 4551) (Staphylococcus sp.; strain GC 4551): 4 µg/mL (≈ 2.71 µM)
- MIC Coagulase Negative Staphylococcus (GC 6257) (Staphylococcus sp.; strain GC 6257): 4 µg/mL (≈ 2.71 µM)
- MIC Enterococcus avium (GC 4558) (Enterococcus sp.): 4 µg/mL (≈ 2.71 µM)
- MIC Enterococcus faecalis (ATCC 29212) (Enterococcus sp.): 8 µg/mL (≈ 5.43 µM)
- MIC Enterococcus faecalis (GC 2242) (Enterococcus sp.): 8 µg/mL (≈ 5.43 µM)
- MIC Enterococcus faecalis (GC 2691) (Enterococcus sp.): 8 µg/mL (≈ 5.43 µM)
- MIC Enterococcus faecalis (GC 3059) (Enterococcus sp.): 8 µg/mL (≈ 5.43 µM)
- MIC Enterococcus faecalis (GC 4552) (Enterococcus sp.): 8 µg/mL (≈ 5.43 µM)
- MIC Enterococcus faecalis (GC 4553) (Enterococcus sp.): 8 µg/mL (≈ 5.43 µM)
- MIC Enterococcus faecalis (GC 4554) (Enterococcus sp.): 8 µg/mL (≈ 5.43 µM)
- MIC Enterococcus faecalis (GC 6189) (Enterococcus sp.): 8 µg/mL (≈ 5.43 µM)
- MIC Enterococcus faecium (GC 2243) (Enterococcus sp.): 4 µg/mL (≈ 2.71 µM)
- MIC Enterococcus faecium (GC 4556) (Enterococcus sp.): 8 µg/mL (≈ 5.43 µM)
- MIC Enterococcus faecium (GC 4557) (Enterococcus sp.): 4 µg/mL (≈ 2.71 µM)
- MIC Enterococcus faecalis (ATCC 29212) (Enterococcus sp.; inoculum 5×10^5 CFU/mL, strain ATCC 29212): 8 µg/mL (≈ 5.43 µM)
- MIC Enterococcus faecalis (GC 2242) (Enterococcus sp.; inoculum 5×10^5 CFU/mL, strain GC 2242): 8 µg/mL (≈ 5.43 µM)
- MIC Enterococcus faecium (GC 2243) (Enterococcus sp.; inoculum 5×10^5 CFU/mL, strain GC 2243): 4 µg/mL (≈ 2.71 µM)
- MIC Enterococcus faecalis (GC 2691) (Enterococcus sp.; inoculum 5×10^5 CFU/mL, strain GC 2691): 8 µg/mL (≈ 5.43 µM)
- MIC Enterococcus faecalis (GC 3059) (Enterococcus sp.; inoculum 5×10^5 CFU/mL, strain GC 3059): 8 µg/mL (≈ 5.43 µM)
- MIC Enterococcus faecalis (GC 4552) (Enterococcus sp.; inoculum 5×10^5 CFU/mL, strain GC 4552): 8 µg/mL (≈ 5.43 µM)
- MIC Enterococcus faecalis (GC 4553) (Enterococcus sp.; inoculum 5×10^5 CFU/mL, strain GC 4553): 8 µg/mL (≈ 5.43 µM)
- MIC Enterococcus faecalis (GC 4554) (Enterococcus sp.; inoculum 5×10^5 CFU/mL, strain GC 4554): 8 µg/mL (≈ 5.43 µM)
- MIC Enterococcus faecium (GC 4556) (Enterococcus sp.; inoculum 5×10^5 CFU/mL, strain GC 4556): 8 µg/mL (≈ 5.43 µM)
- MIC Enterococcus faecium (GC 4557) (Enterococcus sp.; inoculum 5×10^5 CFU/mL, strain GC 4557): 4 µg/mL (≈ 2.71 µM)
- MIC Enterococcus avium (GC 4558) (Enterococcus sp.; inoculum 5×10^5 CFU/mL, strain GC 4558): 4 µg/mL (≈ 2.71 µM)
- MIC Enterococcus faecalis (GC 6189) (Enterococcus sp.; inoculum 5×10^5 CFU/mL, strain GC 6189): 8 µg/mL (≈ 5.43 µM)
Compound: CC(c1ccccc1)C1NC(=O)CNC(=O)C(CO)NC(=O)C(C(O)C2CNC(=N)N2C2OC(CO)C(O)C(O)C2O)NC(=O)C(C(O)C2CNC(=N)N2)NC(=O)C(Cc2ccc(OC3OC(CO)C(OC4OC(CO)C(O)C5OC6(CCCCCCCCCCCC6)OC45)C(O)C3O)cc2)NC1=O (stereo not shown) [Example 210a]
- MIC Staphylococcus haemolyticus (GC 4546) (Staphylococcus sp.; strain GC 4546): 8 µg/mL (≈ 5.43 µM)
